“And” between values parts separate entries of the source, which are not always exact repeats. Identical values can stand only once.
Columns and labels:
Akt = assay: Western immunoblot phospho-Akt in L6 myotubes; type: cell-based, rat; conditions: 50 μM, 18 h
Procedure: L6 cells myotubes, H4IIE cells and 3T3-L1 adipocytes were treated with either CAME, CAEE (50 μM each) or vehicle (DMSO) for 18 h. Insulin (100 nM) or aminoimidazole carboxamide ribonucleotide (AICAR; 1 mM) were added to some vehicle-treated wells 30 min prior to the end of the treatment and served as the positives controls. Protein content was assayed by the bicinchoninic acid method (Thermo Scientific Pierce Protein Research, Rockford, IL) standardized to bovine serum albumin. Western immunoblotting was performed as described elsewhere (Eid et al. [2010]). […] Immunoreactive bands were visualized by enhanced chemiluminescence and quantified by the Scion Image program (Scion Corporation, Frederick, MD). […]
Figure 1. […] Cells were treated as previously described, cell surface GLUT4myc was detected by an enzyme-linked colorimetric assay. […] Results represent the means ± SEM of three independent experiments, and 3-4 cells were analyzed for each condition per experiment. *Indicates a significant (p ≤ 0.05) difference, **(p < 0.01) from the vehicle control group as assessed by ANOVA. […] Data are expressed as (D) phospho-AMPK/β-actin, (E) GLUT4/β-actin and (F) GLUT1/β-actin and are given as mean ± SEM from 3 experiments. *p < 0.05 indicates a significant difference, **(p < 0.01) from the vehicle control group.

C2C12 cells = system: C2C12 cells; design: method as in Eid et al. [2010]; conditions: cultured C2C12 cells; ref Eid et al. [2010]; cited from earlier work
L6 GLUT4myc myotubes = assay: 3H-Deoxyglucose uptake assay; type: cell-based, rat; conditions: 50 μM, 18 h; for 2-deoxyglucose uptake rate: basal (DMSO) 10.1 ± 0.5
Procedure: Measurement of glucose uptake was performed as previously described (Eid et al. [2010]) using [^3H]-2-deoxyglucose (TRK-383, Amersham Biosciences, Buckinghamshire, UK). Nonspecific uptake was measured in the presence of cytochalasin B (10 μM) and was subtracted from all values.
(§1) Figure 1. (A) CAME and CAEE increase ^3H-deoxyglucose uptake in L6 GLUT4myc myotubes. Cells were treated with 50 μM of either CAME, CAEE, or with vehicle (0.1% DMSO) for 18 h. 100 nM insulin served as the positive control and was applied for the last 15 min of the treatment in vehicle-treated cells. Glucose uptake was performed as described in Materials and Methods section. (B) CAME and CAEE stimulate GLUT4 translocation in L6 GLUT4myc myotubes. Cells were treated as previously described, cell surface GLUT4myc was detected by an enzyme-linked colorimetric assay. By the end of the treatment, L6- GLUT4myc cells were labeled with anti-c-myc antibody as described in Materials and Methods section. Results represent the means ± SEM of three independent experiments, and 3-4 cells were analyzed for each condition per experiment. *Indicates a significant (p ≤ 0.05) difference, **(p < 0.01) from the vehicle control group as assessed by ANOVA. […] L6 myotubes treated with CAME or CAEE (50 μM each), DMSO (0.1%) for 18 h. Insulin (100 nM) and AICAR (2 mM) both applied for 30 min and served as positive controls. Immunoblots were probed with anti phospho-AMPK (Thr 172), anti-GLUT4, anti-GLUT1 and anti-phospho-Akt (Ser 473) antibodies as described in Materials and Methods section. Anti-β-actin antibody was used as a loading control. Representative blots are shown in panel C. Data are expressed as (D) phospho-AMPK/β-actin, (E) GLUT4/β-actin and (F) GLUT1/β-actin and are given as mean ± SEM from 3 experiments. *p < 0.05 indicates a significant difference, **(p < 0.01) from the vehicle control group.

3T3-L1 cells = assay: LDH cytotoxicity assay; type: cell-based; conditions: 16-18 h, concentration inducing less than 10% cell death
Procedure: (§2) To determine nontoxic concentrations, cells were treated overnight (16–18 h) with 0.1% DMSO or different concentrations of either CAME or CAEE (12.5, 25, 50 and 100 μM). Cell culture media were collected separately and kept on ice. The cells were rinsed with PBS then lysed with 1% Triton X-100 in culture media for 10 min and the lysate were centrifuged at 4 °C for 10 min at 250g. Lactate dehydrogenase (LDH) activity in medium and in lysates was assayed with the LDH-Cytotoxicity Assay Kit II (BioVision, Mountain View, CA) according to the manufacturer's protocol (Smith et al. [2011]). LDH activity was expressed as the ratio of released LDH (medium) to total (medium + lysate) LDH activity.
(§3) Similar to our previous study in C2C12 cells, the maximum nontoxic concentrations of CAME and CAEE were determined using a LDH assay kit. Concentrations that induced less than 10% cell death were chosen as the maximum nontoxic concentrations (Table 1).

L6 GLUT4myc cells = assay: LDH cytotoxicity assay; type: cell-based; conditions: 16-18 h, concentration inducing less than 10% cell death
Procedure: as §2, §3

H4IIE cells = assay: LDH cytotoxicity assay; type: cell-based; conditions: 16-18 h, concentration inducing less than 10% cell death
Procedure: as §2, §3

GLUT4myc = assay: Cell surface GLUT4myc (GLUT4 translocation), OPD assay; type: cell-based, rat; conditions: 50 μM, 18 h; L6-GLUT4myc
Procedure: L6-GLUT4myc myotubes grown in 24-well plates were serum-starved for 4 h and were incubated with either CAME or CAEE (50 μM) for 18 h or insulin (100 nM) for 15 min. Cell-surface GLUT4myc levels were measured by an antibody-coupled colorimetric assay (Niu et al. [2003]) using O-phenylenediamine dihydrochloride (OPD) reagent (1 mL/well) (Sigma-Aldrich, St. Louis, MO), an anti-c-myc antibody (1:200 dilution; Santa Cruz Biotechnology, Santa Cruz, CA) and horseradish peroxidase (HRP)-conjugated goat anti-rabbit IgG at 4 °C (1:1000 dilution; Cell Signaling Technologies, Danvers, MA).
as §1, with “Anti-β-actin antibody was used as a loading control. Representative blots are shown in panel C.” left out

AMPK = assay: Western immunoblot phospho-AMPK in L6 myotubes; type: cell-based, rat; conditions: 50 μM, 18 h, phospho-AMPK/β-actin
Procedure: L6 cells myotubes, H4IIE cells and 3T3-L1 adipocytes were treated with either CAME, CAEE (50 μM each) or vehicle (DMSO) for 18 h. Insulin (100 nM) or aminoimidazole carboxamide ribonucleotide (AICAR; 1 mM) were added to some vehicle-treated wells 30 min prior to the end of the treatment and served as the positives controls. Protein content was assayed by the bicinchoninic acid method (Thermo Scientific Pierce Protein Research, Rockford, IL) standardized to bovine serum albumin. Western immunoblotting was performed as described elsewhere (Eid et al. [2010]). Membranes were incubated overnight with phospho-AMPK, phospho-Akt, GLUT4, GLUT1 and β-actin antibodies (1:1000 dilution, Cell Signalling Technology, Danvers, MA), or with PPAR-γ, SREBP-1 (1:200, Santa Cruze Biotechnology, Santa Cruz, CA), followed by incubation with HRP-coupled secondary antibody (1:10,000) for 1 h. Immunoreactive bands were visualized by enhanced chemiluminescence and quantified by the Scion Image program (Scion Corporation, Frederick, MD). Experiments were repeated on 3 different passages of cells, each passage containing all conditions in parallel.
Figure 1. (A) CAME and CAEE increase ^3H-deoxyglucose uptake in L6 GLUT4myc myotubes. Cells were treated with 50 μM of either CAME, CAEE, or with vehicle (0.1% DMSO) for 18 h. 100 nM insulin served as the positive control and was applied for the last 15 min of the treatment in vehicle-treated cells. Glucose uptake was performed as described in Materials and Methods section. […] Cells were treated as previously described, cell surface GLUT4myc was detected by an enzyme-linked colorimetric assay. […] Results represent the means ± SEM of three independent experiments, and 3-4 cells were analyzed for each condition per experiment. *Indicates a significant (p ≤ 0.05) difference, **(p < 0.01) from the vehicle control group as assessed by ANOVA. […] Data are expressed as (D) phospho-AMPK/β-actin, (E) GLUT4/β-actin and (F) GLUT1/β-actin and are given as mean ± SEM from 3 experiments. *p < 0.05 indicates a significant difference, **(p < 0.01) from the vehicle control group.

For `CCOC(=O)/C=C/c1ccc(O)c(O)c1` [CAEE, caffeic acid ethyl ester], which “effect on Akt (phospho-Akt)” value (Akt) is on record?
The value was “no effect”.

What about the toxicity (C2C12 cells) of the same compound?
The toxicity was “no or little toxicity”.

What about the “glucose uptake, percent of DMSO control” value (L6 GLUT4myc myotubes) of the same compound?
The value was 216 ± 19%.

What about the 2-deoxyglucose uptake rate (L6 GLUT4myc myotubes) of the same compound?
The 2-deoxyglucose uptake rate was 21.9 ± 1.0 pmol/min/mg protein.

What about the Maximum non-toxic concentration (3T3-L1 cells) of the same compound?
Its Maximum non-toxic concentration is 100 µM.

What about the Maximum non-toxic concentration (L6 GLUT4myc cells) of the same compound?
The Maximum non-toxic concentration was 50 µM.

And the Maximum non-toxic concentration (H4IIE cells)?
The Maximum non-toxic concentration was 50 µM.

What about the “GLUT4 translocation, fold relative to DMSO” value (GLUT4myc) of the same compound?
Its value is 1.95 ± 0.30 fold.

And the “AMPK phosphorylation, fold increase over DMSO” value (AMPK)?
The value was 11 fold.

Which results are given for `COC(=O)/C=C/c1ccc(O)c(O)c1` [CAME, CA methyl ester]?
effect on Akt (phospho-Akt) (Akt): no effect; toxicity (C2C12 cells): no or little toxicity; glucose uptake, percent of DMSO control (L6 GLUT4myc myotubes): 184 ± 16%; 2-deoxyglucose uptake rate (L6 GLUT4myc myotubes): 18.7 ± 0.8 pmol/min/mg protein; Maximum non-toxic concentration (3T3-L1 cells): 100 µM; Maximum non-toxic concentration (L6 GLUT4myc cells): 50 µM; Maximum non-toxic concentration (H4IIE cells): 100 µM; GLUT4 translocation, fold relative to DMSO (GLUT4myc): 1.73 ± 0.18 fold and 1.79 ± 0.18 fold; AMPK phosphorylation, fold increase over DMSO (AMPK): 13 fold

Source: publication PMC6130489, “Caffeic acid methyl and ethyl esters exert potential antidiabetic effects on glucose and lipid metabolism in cultured murine insulin-sensitive cells through mechanisms implicating activation of AMPK” (Pharmaceutical Biology, 2017)
